Results: patent publication US20180003723A1, “METHODS AND SYSTEMS FOR […] DISORDERS” (OASIS DIAGNOSTICS CORPORATION, priority 2014, published 2018)

Assays:
[1] = test system: patients with idiopathic central sleep apnea; assay: Salivary biomarker levels before and after zolpidem treatment (commercial kits, NMR); type: in vivo, human; settings: unstimulated saliva, morning, after 150 days of study, mean
Protocol: Idiopathic central sleep apnea was defined by central apnea and hypopnea index (CAHI)≧10 events per hour of sleep, and obstructive apnea/hypopnea index ≦5 events per hour of sleep. An apnea was defined as a cessation or reduction in peak oronasal airflow≧70% of baseline, lasting ≧15 s. Hypopnea was defined as a reduction in peak oronasal airflow ≧50%, ≧70% of baseline for ≧15 s, along with a ≧4% drop in SpO2 relative to pre-event baseline value. The apnea/hypopnea index was calculated for all events relative to total sleep time and documented separately for central and obstructive events. Central apneas and hypopneas comprised the central and obstructive apneas and hypopneas plus mixed apneas and hypopneas comprised the obstructive apnea-hypopnea index (OAHI). Exclusion criteria comprise such as clinical or echocardiographic diagnosis of systolic heart failure, diastolic cardiac dysfunction, or a history of transient ischemic attack or stroke. Those with a typical pattern of Cheyne Stokes respiration during sleep were also excluded. Patients with obstructive sleep apnea with an Apnea-Hypopnea Index of (AHI) ≧5 events per hour prior to continuous positive airway pressure device (CPAP) use, or a history of restless legs syndrome/periodic leg movements were also excluded. Patients with prior use of sedative agents such as zolpidem, acetazolamide, theophylline, medroxyprogesterone, or any opiate, were also excluded from the study to exclude comparative bias when evaluating subjective response to zolpidem. Patients with hypercapnic lung disease or those with obesity hypoventilation syndrome were also excluded. Subjects were given the Epworth Sleepiness Scale (ESS), and a physical exam followed by an 8-h diagnostic polysomnogram (PSG). […] Outpatient monitoring was conducted every four weeks to assess patients for side effects and for evaluation of daytime sleepiness, using the ESS. […] Nocturnal polysomnographic assessment using the Grass Aurora system was performed in a standard way consisting of an electroencephalogram (EEG), an electrooculogram (EOG), a submental electromyogram (EMG), an anterior tibialis EMG, and an electrocardiogram (ECG) (Rechtschaffen A, Kales A. A manual of standardized terminology, techniques and scoring system for sleep stages in human subjects. Washington D.C.: US Government Printing Office. National Institute of Health Publication; 1968). Nasal-oral airflow was measured using thermocouples. Abdominal and thoracic respiratory movements were recorded with respiratory effort belts using piezoelectric crystal sensors. Transcutaneous oxyhemoglobin saturation (SpO2) was monitored with finger pulse oximetry. A recording of sleep position was performed using video monitoring and snoring was recorded using a snore sensor. An experienced sleep physician, blinded to the study protocol, scored sleep recordings. Sleep architecture was analyzed according to standardized way (Rechtschaffen A, Kales A. A manual of standardized terminology, techniques and scoring system for sleep stages in human subjects. Washington D.C.: US Government Printing Office. National Institute of Health Publication; 1968). Unstimulated saliva samples were collected and biomarker levels measured in the morning prior to beginning and after 150 days of study. Ten minutes prior to collection of unstimulated saliva samples, individuals were asked to rinse orally with water. At the time of sample collection, study members were asked to relax for 5-15 minutes. They were then seated in a bent forward position in an ordinary chair and asked to put their tongues on the lingual surfaces of the upper incisors and allow the saliva to drip into sterile plastic (glass) tubes treated with […] of 2% sodium azide solution to prevent microbial decomposition of saliva. The tubes were held to the lower lip for 10 minutes resulting in a collection of 1-5 ml of saliva per individual. […]

[2] = test system: patients diagnosed with idiopathic central sleep apnea; assay: Hospital based clinical trial of zolpidem: follow-up polysomnogram and Epworth Sleepiness Scale; type: in vivo, human
Protocol: Idiopathic central sleep apnea was defined by central apnea and hypopnea index (CAHI)≧10 events per hour of sleep, and obstructive apnea/hypopnea index ≦5 events per hour of sleep. An apnea was defined as a cessation or reduction in peak oronasal airflow≧70% of baseline, lasting ≧15 s. Hypopnea was defined as a reduction in peak oronasal airflow ≧50%, ≧70% of baseline for ≧15 s, along with a ≧4% drop in SpO2 relative to pre-event baseline value. The apnea/hypopnea index was calculated for all events relative to total sleep time and documented separately for central and obstructive events. Central apneas and hypopneas comprised the central and obstructive apneas and hypopneas plus mixed apneas and hypopneas comprised the obstructive apnea-hypopnea index (OAHI). Exclusion criteria comprise such as clinical or echocardiographic diagnosis of systolic heart failure, diastolic cardiac dysfunction, or a history of transient ischemic attack or stroke. Those with a typical pattern of Cheyne Stokes respiration during sleep were also excluded. Patients with obstructive sleep apnea with an Apnea-Hypopnea Index of (AHI) ≧5 events per hour prior to continuous positive airway pressure device (CPAP) use, or a history of restless legs syndrome/periodic leg movements were also excluded. […] Patients with hypercapnic lung disease or those with obesity hypoventilation syndrome were also excluded. Subjects were given the Epworth Sleepiness Scale (ESS), and a physical exam followed by an 8-h diagnostic polysomnogram (PSG). […] Outpatient monitoring was conducted every four weeks to assess patients for side effects and for evaluation of daytime sleepiness, using the ESS. […] Nocturnal polysomnographic assessment using the Grass Aurora system was performed in a standard way consisting of an electroencephalogram (EEG), an electrooculogram (EOG), a submental electromyogram (EMG), an anterior tibialis EMG, and an electrocardiogram (ECG) (Rechtschaffen A, Kales A. A manual of standardized terminology, techniques and scoring system for sleep stages in human subjects. Washington D.C.: US Government Printing Office. National Institute of Health Publication; 1968). Nasal-oral airflow was measured using thermocouples. Abdominal and thoracic respiratory movements were recorded with respiratory effort belts using piezoelectric crystal sensors. Transcutaneous oxyhemoglobin saturation (SpO2) was monitored with finger pulse oximetry. A recording of sleep position was performed using video monitoring and snoring was recorded using a snore sensor. An experienced sleep physician, blinded to the study protocol, scored sleep recordings. Sleep architecture was analyzed according to standardized way (Rechtschaffen A, Kales A. A manual of standardized terminology, techniques and scoring system for sleep stages in human subjects. Washington D.C.: US Government Printing Office. National Institute of Health Publication; 1968). Unstimulated saliva samples were collected and biomarker levels measured in the morning prior to beginning and after 150 days of study. Ten minutes prior to collection of unstimulated saliva samples, individuals were asked to rinse orally with water. At the time of sample collection, study members were asked to relax for 5-15 minutes. They were then seated in a bent forward position in an ordinary chair and asked to put their tongues on the lingual surfaces of the upper incisors and allow the saliva to drip into sterile plastic (glass) tubes treated with […] of 2% sodium azide solution to prevent microbial decomposition of saliva. The tubes were held to the lower lip for 10 minutes resulting in a collection of 1-5 ml of saliva per individual.

[3] = follow-up polysomnogram vs before treatment

Cc1ccc(-c2nc3ccc(C)cn3c2CC(=O)N(C)C)cc1 [zolpidem]
Salivary Arginine, After Treatment ([1]; Before Treatment 0.56, P 0.001): 0.45 µmol/mL
Salivary Creatine, After Treatment ([1]; Before Treatment 0.64, P 0.001): 0.47 µmol/mL
Salivary Tyrosine, After Treatment ([1]; Before Treatment 0.67, P 0.005): 0.54 µmol/mL
Salivary CgA, After Treatment ([1]; Before Treatment 13.68, P 0.0001): 4.23 pmol/mg protein
Salivary Dihomo-linolenate, After Treatment ([1]; Before Treatment 34.4, P 0.0001): 27.1 µmol/mL
Salivary Linolenate, After Treatment ([1]; Before Treatment 36.5, P 0.0001): 21.2 µmol/mL
Salivary 3-methyl-2-oxobutyrate, After Treatment ([1]; Before Treatment 61.2, P 0.005): 54.1 µmol/mL
Salivary Annexin 1, After Treatment ([1]; Before Treatment 72.1, P 0.0001): 56.3 ng/mL
Salivary BDNF, After Treatment ([1]; Before Treatment 345.8, P 0.0001): 234.5 pg/mL
Salivary B-endorphin, After Treatment ([1]; Before Treatment 2134.9, P 0.0001): 1235.3 pg/mL
Excessive daytime sleepiness, measured by the Epworth Sleepiness Scale (ESS), change ([2]; after vs before treatment): decreased
central AHI (CAHI), change on follow-up polysomnogram [2, 3]: significantly decreased
sleep latency, change [2, 3]: decreased
stage 1, 3, and 4 sleep percentages, change [2, 3]: decreased
stage 2 percentages, change [2, 3]: increased
total number of arousals per hour, change with treatment use [2, 3]: decreased
Apnea hypopnea, After ([2]; mean, 10 patients, zolpidem 10 mg orally each night, repeat PSG six to ten weeks after initiation, Before 32.6, P 0.0001): 12.6
Epworth sleepiness score, After ([2]; mean, zolpidem 10 mg orally each night, Before 13.7, P 0.0001): 6.5
% TST stage 3 and 4, After ([2]; mean, zolpidem 10 mg orally each night, repeat PSG six to ten weeks, Before 1.3, P 0.05): 0.8%
Total sleep time, After ([2]; mean, zolpidem 10 mg orally each night, repeat PSG six to ten weeks, Before 4.6, P 0.005): 6.3 h
% TST REM, After ([2]; mean, zolpidem 10 mg orally each night, repeat PSG six to ten weeks, Before 10.4, P 0.05): 14.5%
% TST stage 1, After ([2]; mean, zolpidem 10 mg orally each night, repeat PSG six to ten weeks, Before 34.6, P 0.05): 21.3%
